ChEMBL document CHEMBL3091348, “Discovery of an intravenous hepatoselective glucokinase activator for the treatment of inpatient hyperglycemia” (Bioorg Med Chem Lett, 2013)
In brackets after ≈: the same amount, converted by molar mass.

Key:
[1] = Lipophilicity, log D of the compound at pH 7.4; type: physicochemical; details: buffer
[2] = test system: Rattus norvegicus; assay: Antidiabetic activity in Goto-Kakizaki rat diabetic model assessed as reduction in glucose excursion AUC at 100 mg/kg, po measured after 1 hr by oral glucose tolerance test relative to control; parameters: scale not given: the % may be the effect or the level left
[3] = Aqueous kinetic solubility of the compound at pH 6.5; type: physicochemical; details: read-out: Kinetic_solubility
[4] = Apparent permeability across RRCK cells; type: ADME, cell-based, Canis lupus familiaris, MDCKII-LE; details: dog, MDCK
[5] = target: T1, Hexokinase-4 (Homo sapiens) (UniProt P35557); assay: Activation of recombinant human glucokinase assessed as increase in enzyme Vmax for glucose by G6PDH/NADP coupled assay relative to control
T1 sequence (whole entry): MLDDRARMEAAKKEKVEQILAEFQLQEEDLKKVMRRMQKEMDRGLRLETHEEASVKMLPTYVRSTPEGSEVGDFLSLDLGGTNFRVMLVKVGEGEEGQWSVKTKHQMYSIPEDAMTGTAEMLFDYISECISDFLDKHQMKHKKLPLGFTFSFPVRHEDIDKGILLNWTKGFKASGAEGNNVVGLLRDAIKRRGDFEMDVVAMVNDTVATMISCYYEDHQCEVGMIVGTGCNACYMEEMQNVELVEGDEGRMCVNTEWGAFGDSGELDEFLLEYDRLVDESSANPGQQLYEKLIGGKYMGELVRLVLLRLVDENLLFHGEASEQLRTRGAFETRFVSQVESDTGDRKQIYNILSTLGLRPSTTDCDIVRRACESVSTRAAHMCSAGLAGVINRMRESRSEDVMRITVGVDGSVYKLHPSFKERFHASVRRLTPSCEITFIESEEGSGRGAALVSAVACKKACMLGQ

[6] = target: T1, Hexokinase-4 (Homo sapiens); assay: Activation of recombinant human glucokinase assessed as decrease in enzyme Km for glucose by G6PDH/NADP coupled assay relative to control
[7] = target: T2, Hexokinase-4 (Homo sapiens, UniProt P35557); assay: Activation of recombinant human glucokinase by G6PDH/NADP coupled assay
T2 sequence (P35557 whole entry): T1 sequence (whole entry)

[8] = Aqueous solubility of the compound at pH 8.5; type: physicochemical

logD [1] | solubility kinetic [3] | Papp [4] | fold change (FC) [5] | fold change (FC) [6] | EC50 [7] | solubility [8] | Compound | Activity [2]
0.15 | 0.198 mM (≈ 91.2 µg/mL) | 0.3 ×10⁻⁶ cm/s | 1.25 | 0.08 | 227 nM |  | O=C(O)c1ccc(NC(=O)[C@H](CC2CCCCC2)n2cnc(S(=O)(=O)C3CCC3)c2)nc1 | 
 |  |  |  |  |  | 41 mM | O=C([O-])c1ccc(NC(=O)[C@H](CC2CCCC2)n2cnc(S(=O)(=O)C3CCC3)c2)nc1.[Na+] | 

The remaining lines, values behind:

Compound | logD [1] | solubility kinetic [3] | Papp [4] | fold change (FC) [5] | fold change (FC) [6] | EC50 [7] | solubility [8] | Activity [2]
O=C(O)c1ccc(NC(=O)[C@H](CC2CCCC2)n2cnc(C(F)(F)F)c2)nc1 [PF-04991532] | 0.68 |  |  |  |  |  |  | 17.7%
O=C(O)c1ccc(NC(=O)[C@H](CC2CCCC2)n2cnc(S(=O)(=O)C3CCC3)c2)nc1 |  |  |  | 1.35 | 0.06 |  |  | 
O=C(O)c1ccc(NC(=O)[C@H](CC2CCOCC2)n2cnc(S(=O)(=O)C3CC3)c2)nc1 | -1.85 |  | 0.9 ×10⁻⁶ cm/s | 1.21 | 0.11 | 1350 nM |  | 
